The values below come from the OPERA property sets (Mansouri et al. 2018).

The conditions of the data set: 25.0 °C.
In the case of `Clc1ccc(-c2cc(Cl)ccc2Cl)cc1`, the log10 OH rate constant (cm³/molecule/s) was -11.9.

`Clc1cc(Cl)c(-c2ccccc2)cc1Cl` returned a log10 OH rate constant (cm³/molecule/s) of -11.9.

In the case of `Clc1ccc(-c2ccccc2)c(Cl)c1`, the log10 OH rate constant (cm³/molecule/s) is -11.6.

In the case of `Clc1c(Cl)c(Cl)c(-c2ccccc2)c(Cl)c1Cl`, the log10 OH rate constant (cm³/molecule/s) is -12.

Molecule `Clc1ccc(-c2ccc(Cl)cc2Cl)cc1` registered a log10 OH rate constant (cm³/molecule/s) of -12.

`Clc1ccc(-c2ccccc2Cl)cc1Cl` registered a log10 OH rate constant (cm³/molecule/s) of -12.

In turn, `Clc1ccc(-c2ccc(Cl)cc2Cl)c(Cl)c1` came in with a log10 OH rate constant (cm³/molecule/s) of -12.

Take `Clc1ccc(-c2c(Cl)ccc(Cl)c2Cl)cc1Cl`: the log10 OH rate constant (cm³/molecule/s) is -12.2.

For the molecule `Clc1ccc(Cl)c(-c2c(Cl)ccc(Cl)c2Cl)c1`, the log10 OH rate constant (cm³/molecule/s) was -12.4.

For `Clc1ccc(Cl)c(-c2cccc(Cl)c2Cl)c1`, the log10 OH rate constant (cm³/molecule/s) was -12.1.
